Measured values taken from US9353146B2, “Acylation derivatives of paridis saponins I, preparation method therefor and application thereof” (HANGZHOU BENSHENG PHARMACEUTICAL CO., LTD., priority 2012, dated 2016).
In brackets after ≈: the same amount, converted by molar mass.

Legend:
[1] = system: K562/adr (drug-resistant, chronic myeloid leukemia, CML); experiment: Anti-leukemia cell growth inhibition, MTT method, 72 h; format: cell-based, human; conditions: for IC50 / IC90: Homo sapiens, K562/Adr
From the text: (§1) Leukemia cell lines: leukemia cell lines: K562/adr (drug-resistant, chronic myeloid leukemia, CML), NB4 (acute promyelocytic leukemia, AML), and Kasumi-1 (acute myeloid leukemia M2 type, AML-M2), all of which were donated by Cancer Research Institute of Zhejiang University, China.
(§2) 6000 well-growing leukemia cells were obtained and inoculated into wells of a 96-well cell culture plate. The culture medium used was the 1640 cell culture medium containing 10% fetal bovine serum. After adding the Polyphyllin I derivatives with 5′-acylated arabinofuranosyl of different concentrations and mixing uniformly, the plate was placed in a carbon dioxide cell incubator (5% CO2) at 37° C. and incubated for 72 hours. Then the viable cell concentration was determined by the MTT method. In this experiment, the cell viability in control group (not treated with any compound) is set as 100%. On such basis, the cell viability (%) after treatment of the compound and the 50% inhibiting concentration for the leukemia cell growth at 72 hours (IC50 value and IC90 value of 72 hours) were calculated.

[2] = system: NB4 (acute promyelocytic leukemia, AML); experiment: as above; format: cell-based, human; conditions: for IC50 / IC90: Homo sapiens
From the text: as §1, §2

[3] = system: RKO (human colon adenocarcinoma cell); experiment: Anti-human solid tumor cell growth inhibition, MTT method, 72 h; format: cell-based; conditions: for IC90: Homo sapiens
From the text: (§3) Human solid tumor cell lines: A549 (human lung cancer) and SK-OV-3 (ovarian cancer cell), all of which are purchased from China Center For Type Culture Collection; RKO (human colon adenocarcinoma cell) and MG-63 (osteosarcoma), all of which are purchased from Fuxiang Bio-tech Co. Ltd., Shanghai, China; Hela (human cervical cancer cell), donated by Cancer Research Institute of Zhejiang University, China.
(§4) 4000 well-growing human solid tumor cells were obtained and inoculated into wells of a 96-well cell culture plate. The culture medium used was DMEM High Glucose cell culture medium containing 10% fetal bovine serum. The plate is placed in a carbon dioxide cell incubator (5% CO2) at 37° C. and incubated for 24 hours. After adding the Polyphyllin I derivatives with 5′-acylated arabinofuranosyl group of different concentrations and mixing uniformly, the plate was continued to be placed in a carbon dioxide cell incubator (5% CO2) at 37° C. and incubated for 72 hours. Then the viable cell concentration was determined by the MTT method and the cell viability (%) after drug treatment was calculated. In this experiment, the cell viability of control group (not treated with any compound) is set as 100%.

A549 (human lung cancer) = experiment: as above; format: cell-based; conditions: for IC50 / IC90: Homo sapiens, A549
From the text: as §3, §4

[4] = system: Hela (human cervical cancer cell); experiment: as above; format: cell-based; conditions: for IC50 / IC90: Homo sapiens, HeLa
From the text: as §3, §4

[5] = system: Kasumi-1 (acute myeloid leukemia M2 type, AML-M2); experiment: Anti-leukemia cell growth inhibition, MTT method, 72 h; format: cell-based, human; conditions: for IC50: Homo sapiens, Kasumi 1
From the text: as §1, §2

[6] = system: SK-OV-3 (ovarian cancer cell); experiment: Anti-human solid tumor cell growth inhibition, MTT method, 72 h; format: cell-based
From the text: as §3, §4

MG-63 (osteosarcoma) = experiment: as above; format: cell-based; conditions: for IC50 / IC90: Homo sapiens, MG-63
From the text: as §3, §4

[7] = system: nasopharyngeal carcinoma CNE-2 cell line; conditions: DDP as positive control; HUA Yonghong et al. 2011; cited from earlier work
[8] = system: nasopharyngeal carcinoma CNE-2 cell line; conditions: HUA Yonghong et al. 2011; cited from earlier work
[9] = system: human hepatocellular carcinoma SMMC-7721 cell line; conditions: in vitro; XIAO Meifang et al. 2011; cited from earlier work

| SMILES | IC50 [1] [µg/mL] | IC50 [2] [µg/mL] | IC90 [2] [µg/mL] | IC90 [3] [µg/mL] | IC90 [1] [µg/mL] | IC50 (A549 (human lung cancer)) [µg/mL] | IC90 (A549 (human lung cancer)) [µg/mL] | IC50 [4] [µg/mL] | IC90 [4] [µg/mL] | further results |
| --- | --- | --- | --- | --- | --- | --- | --- | --- | --- | --- |
| COc1ccc(C(=O)OC[C@@H]2OC(O[C@H]3[C@H](O)[C@@H](OC4O[C@@H](C)[C@H](O)[C@@H](O)[C@H]4O)[C@H](O[C@H]4CC[C@@]5(C)C(=CCC6C7CC8O[C@]9(CC[C@@H](C)CO9)[C@@H](C)C8[C@@]7(C)CCC65)C4)O[C@@H]3CO)[C@H](O)[C@H]2O)cc1 (stereo partly drawn) [BS-PP-03] | 0.69 (≈ 0.698 µM) | 1.13 (≈ 1.14 µM) | 1.96 (≈ 1.98 µM) | 4.5 (≈ 4.55 µM) |  |  |  |  |  |  |
| C[C@@H]1CC[C@@]2(OC1)OC1CC3C4CC=C5C[C@@H](O[C@@H]6O[C@H](CO)[C@@H](OC7O[C@@H](COC(=O)c8ccncc8)[C@H](O)[C@H]7O)[C@H](O)[C@H]6OC6O[C@@H](C)[C@H](O)[C@@H](O)[C@H]6O)CC[C@]5(C)C4CC[C@]3(C)C1[C@@H]2C (stereo partly drawn) [BS-PP-04] | 0.38 (≈ 0.396 µM) | 0.91 (≈ 0.948 µM) | 3.85 (≈ 4.01 µM) |  | 2.33 (≈ 2.43 µM) | 1 (≈ 1.04 µM) | 14.5 (≈ 15.1 µM) | 0.48 (≈ 0.5 µM) | 3.23 (≈ 3.36 µM) |  |
| C[C@@H]1CC[C@@]2(OC1)OC1CC3C4CC=C5C[C@@H](O[C@@H]6O[C@H](CO)[C@@H](OC7O[C@@H](COC(=O)c8ccc(C(F)(F)F)cc8)[C@H](O)[C@H]7O)[C@H](O)[C@H]6OC6O[C@@H](C)[C@H](O)[C@@H](O)[C@H]6O)CC[C@]5(C)C4CC[C@]3(C)C1[C@@H]2C (stereo partly drawn) [BS-PP-05] |  |  |  | 6.82 (≈ 6.64 µM) |  | 1.8 (≈ 1.75 µM) | 12 (≈ 11.7 µM) |  |  |  |
| C[C@@H]1CC[C@@]2(OC1)OC1CC3C4CC=C5C[C@@H](O[C@@H]6O[C@H](CO)[C@@H](OC7O[C@@H](COC(=O)c8ccc(F)cc8)[C@H](O)[C@H]7O)[C@H](O)[C@H]6OC6O[C@@H](C)[C@H](O)[C@@H](O)[C@H]6O)CC[C@]5(C)C4CC[C@]3(C)C1[C@@H]2C (stereo partly drawn) [BS-PP-06] | 0.73 (≈ 0.747 µM) | 0.79 (≈ 0.808 µM) | 4.09 (≈ 4.19 µM) | 5.13 (≈ 5.25 µM) | 2.66 (≈ 2.72 µM) |  |  |  |  |  |
| C[C@@H]1CC[C@@]2(OC1)OC1CC3C4CC=C5C[C@@H](O[C@@H]6O[C@H](CO)[C@@H](OC7O[C@@H](COC(=O)c8ccc(F)cc8F)[C@H](O)[C@H]7O)[C@H](O)[C@H]6OC6O[C@@H](C)[C@H](O)[C@@H](O)[C@H]6O)CC[C@]5(C)C4CC[C@]3(C)C1[C@@H]2C (stereo partly drawn) [BS-PP-08] | 0.49 (≈ 0.492 µM) | 0.85 (≈ 0.854 µM) | 1.9 (≈ 1.91 µM) | 4.93 (≈ 4.95 µM) | 2.5 (≈ 2.51 µM) | 1.19 (≈ 1.2 µM) | 14.1 (≈ 14.1 µM) | 0.61 (≈ 0.613 µM) | 3.89 (≈ 3.91 µM) |  |
| C[C@@H]1CC[C@@]2(OC1)OC1CC3C4CC=C5C[C@@H](O[C@@H]6O[C@H](CO)[C@@H](OC7O[C@@H](COC(=O)c8cccs8)[C@H](O)[C@H]7O)[C@H](O)[C@H]6OC6O[C@@H](C)[C@H](O)[C@@H](O)[C@H]6O)CC[C@]5(C)C4CC[C@]3(C)C1[C@@H]2C (stereo partly drawn) [BS-PP-09] |  | 1.11 (≈ 1.15 µM) | 3.92 (≈ 4.06 µM) | 5.25 (≈ 5.44 µM) |  | 1.6 (≈ 1.66 µM) | 13 (≈ 13.5 µM) | 0.55 (≈ 0.57 µM) | 2 (≈ 2.07 µM) |  |
| C[C@@H]1CC[C@@]2(OC1)OC1CC3C4CC=C5C[C@@H](O[C@@H]6O[C@H](CO)[C@@H](OC7O[C@@H](COC(=O)c8ccco8)[C@H](O)[C@H]7O)[C@H](O)[C@H]6OC6O[C@@H](C)[C@H](O)[C@@H](O)[C@H]6O)CC[C@]5(C)C4CC[C@]3(C)C1[C@@H]2C (stereo partly drawn) [BS-PP-10] | 0.45 (≈ 0.474 µM) | 0.83 (≈ 0.875 µM) | 2.82 (≈ 2.97 µM) | 5.46 (≈ 5.75 µM) | 2.23 (≈ 2.35 µM) | 0.86 (≈ 0.906 µM) | 10.2 (≈ 10.8 µM) | 0.45 (≈ 0.474 µM) | 2.01 (≈ 2.12 µM) | IC50 [5]: 0.78 µg/mL (≈ 0.822 µM); IC50 ([6]; Homo sapiens, SK-OV-3): 0.65 µg/mL (≈ 0.685 µM); IC90 ([6]; Homo sapiens, SK-OV-3): 0.97 µg/mL (≈ 1.02 µM); IC50 (MG-63 (osteosarcoma)): 0.33 µg/mL (≈ 0.348 µM); IC90 (MG-63 (osteosarcoma)): 0.85 µg/mL (≈ 0.896 µM) |
| CC(=O)OC[C@@H]1OC(O[C@H]2[C@H](O)[C@@H](OC3O[C@@H](C)[C@H](O)[C@@H](O)[C@H]3O)[C@H](O[C@H]3CC[C@@]4(C)C(=CCC5C6CC7O[C@]8(CC[C@@H](C)CO8)[C@@H](C)C7[C@@]6(C)CCC54)C3)O[C@@H]2CO)[C@H](O)[C@H]1O (stereo partly drawn) [BS-PP-11] | 0.42 (≈ 0.468 µM) | 0.94 (≈ 1.05 µM) | 2.48 (≈ 2.76 µM) |  | 2.32 (≈ 2.59 µM) | 0.83 (≈ 0.925 µM) | 10.2 (≈ 11.4 µM) | 0.62 (≈ 0.691 µM) | 2.57 (≈ 2.86 µM) | IC50 (MG-63 (osteosarcoma)): 0.33 µg/mL (≈ 0.368 µM); IC90 (MG-63 (osteosarcoma)): 0.76 µg/mL (≈ 0.847 µM) |
| C[C@@H]1CC[C@@]2(OC1)OC1CC3C4CC=C5C[C@@H](O[C@@H]6O[C@H](CO)[C@@H](OC7O[C@@H](COC(=O)C8CC8)[C@H](O)[C@H]7O)[C@H](O)[C@H]6OC6O[C@@H](C)[C@H](O)[C@@H](O)[C@H]6O)CC[C@]5(C)C4CC[C@]3(C)C1[C@@H]2C (stereo partly drawn) [BS-PP-12] | 0.42 (≈ 0.455 µM) | 1.22 (≈ 1.32 µM) | 3.96 (≈ 4.29 µM) | 6.08 (≈ 6.59 µM) | 2.14 (≈ 2.32 µM) | 0.86 (≈ 0.932 µM) | 7.38 (≈ 7.99 µM) | 0.5 (≈ 0.542 µM) | 3.19 (≈ 3.46 µM) | IC50 [5]: 0.86 µg/mL (≈ 0.932 µM) |
| C[C@@H]1CC[C@@]2(OC1)OC1CC3C4CC=C5C[C@@H](O[C@@H]6O[C@H](CO)[C@@H](OC7O[C@@H](COC(=O)c8ccc(F)cc8Cl)[C@H](O)[C@H]7O)[C@H](O)[C@H]6OC6O[C@@H](C)[C@H](O)[C@@H](O)[C@H]6O)CC[C@]5(C)C4CC[C@]3(C)C1[C@@H]2C (stereo partly drawn) [BS-PP-15] | 0.76 (≈ 0.751 µM) | 1.19 (≈ 1.18 µM) | 3.4 (≈ 3.36 µM) | 5.13 (≈ 5.07 µM) | 2 (≈ 1.98 µM) | 1.8 (≈ 1.78 µM) | 9.9 (≈ 9.79 µM) | 0.68 (≈ 0.672 µM) | 3.51 (≈ 3.47 µM) |  |
| C[C@@H]1CC[C@@]2(OC1)O[C@H]1C[C@H]3[C@@H]4CC=C5C[C@@H](O[C@@H]6O[C@H](CO)[C@@H](O[C@@H]7O[C@@H](CO)[C@H](O)[C@H]7O)[C@H](O)[C@H]6O[C@@H]6O[C@@H](C)[C@H](O)[C@@H](O)[C@H]6O)CC[C@]5(C)[C@H]4CC[C@]3(C)[C@H]1[C@@H]2C [PP, 4-O-arabinofuranosyl-2-O-rhamnopyranosyl-β-D-glucopyranosyldioscin, reference compound] |  |  |  |  |  |  |  |  |  | radiosensitizing effects on CNE-2 cell line [7]: concentration-dependent radiosensitizing effects; effects on the proliferation of CNE-2 cells [8]: time- and dose-dependent inhibitory effects; effect on proliferation of SMMC-7721 cells [9]: inhibit the proliferation of hepatocellular carcinoma SMMC-7721 cells in a time- and concentration-dependent manner; K562/adr IC50 [1]: 0.87 µg/mL; K562/adr IC90 [1]: 2.98 µg/mL; NB4 IC50 [2]: 1.84 µg/mL; NB4 IC90 [2]: 6.75 µg/mL; Kasumi-1 IC50 [5]: 0.92 µg/mL; A549 IC50 (A549 (human lung cancer)): 1.86 µg/mL; A549 IC90 (A549 (human lung cancer)): 14.63 µg/mL; RKO IC90 [3]: 8.48 µg/mL; SK-OV-3 IC50 [6]: 0.70 µg/mL; SK-OV-3 IC90 [6]: 1.70 µg/mL; Hela IC50 [4]: 0.77 µg/mL; Hela IC90 [4]: 4.86 µg/mL; MG-63 IC50 (MG-63 (osteosarcoma)): 0.37 µg/mL; MG-63 IC90 (MG-63 (osteosarcoma)): 0.97 µg/mL |
